Source: patent US6670378B2, “Method of treating Parkinson's disease” (Pharmacia & Upjohn Company, priority 2001, dated 2003)

Key:
[1] = tested on: 6-OH-dopamine lesioned rats; assay: L-DOPA induced behavioral sensitization (contralateral rotations) in unilaterally 6-OH-dopamine lesioned rats; assay type: in vivo, Male Sprague-Dawley rats
Method: Repeated administration of dopamine agonists to 6-OH-dopamine lesioned rats results in behavioral sensitization or enhanced rotational behavior in the rats. This effect is believed to mirror the development of motor complications including L-DOPA induced involuntary movements such as dyskinesias in Parkinson's Disease patients.
Male Sprague-Dawley rats having lesion surgery were provided. […] The rats were anesthetized with 60 mg/kg i.p. sodium pentobarbital and then placed in a stereotaxic apparatus. A small hole was drilled through the skull of the rats and a 30-gauge stainless tubing was lowered to the right (one study) or left (two studies) medial forebrain bundle. 8 μg/4 μL (8μ free base) of 6-OH-dopamine solution was injected into the medial forebrain bundle at a rate of 1 μL/min. Following surgery, the incision was closed with clips and ointment containing a local anesthetic/antibiotic was applied to the incision area. The rats were returned to their home cages and allowed one week to recover from surgery.
The rats were group housed in wire mesh hanging cages with free access to food and water and kept on 12-hour light:12-hour dark cycles with the light being on from 6:00 a.m. to 6:00 p.m. All behavioral testing was done between 9:00 a.m. to 6:00 p.m.
Two to three weeks after the surgery, the rats were screened to assess the degree of lesion by measuring their net turning response to a single dose of 0.1 mg/kg s.c. of apomorphine HCl in 0.9% saline. The total turns were recorded in discrete 10 minute intervals. Each rat was connected by a lightweight harness and tether to a rotometer comprising a swivel with a mechanical counter at the top of a clear plastic cylindrical cage. The rats were used for the experiments if they had at least 30 contralateral turns in 10 minutes, with contralateral being away from the side of the lesion. In addition to screening out incomplete lesions, the response to apomorphine was used to separate the rats into balanced treatment groups, prior to the start of chronic dosing. The rats were ranked by cumulative net turning response and an equal number of high and low responders were placed in each treatment group.
All of the injections were given in a volume of 2 ml/kg and, with the exception of L-DOPA+benserazide 15+5 mg/kg, i.p., all injections were subcutaneous. All chronic treatment was given bid, 6-8 hours apart. […] S-(−)-3-[3-(methylsulfonyl)phenyl]-1-propyl-piperidine was dissolved in 0.9% sterile saline and administered at either 10 or 30 mg/kg subcutaneously 20 minutes before L-DOPA or together with the L-DOPA. The basal turning measurement started immediately after the rats received the first injections on day 1 with the activity being measured for 4-6 hours after dosing. The turning activity was measured again on days 7 and 14 and compared to the activity on day 1. […] Analysis of variance was used for statistical calculations and probability levels of <0.05 was regarded as being statistically significant.

[2] = Plasma/blood levels of the piperidine derivative and its N-dealkylated metabolite after two weeks of chronic dosing (HPLC-MS/MS); assay type: in vivo, Male Sprague-Dawley rats; conditions: plasma one hour after evening dose
Method: In order to perform the brain monoamine neurochemistry analysis, the brains were harvested following 14 days of chronic drug treatment. This was performed by decapitating the rats one hour after the evening drug administration, collecting the trunk blood into EDTA-treated tubes, immediately removing the brains, freezing the brains in small aluminum pans on dry ice and then storing at −80° C. […] Blood was spun and plasma was frozen at −80° C. for analysis of S-(−)-3-[3-(methylsulfonyl) phenyl]-1-propyl-piperidine and its major N-dealkylated metabolite. Plasma concentrations of S-(−)-3-[3-(methylsulfonyl)phenyl]-1-propyl-piperidine and its despropyl metabolite were quantitated using on-line high performance liquid chromatography (HPLC) tandem mass spectroscopy (MS/MS) with an atmospheric pressure chemical ionization (APCI) interface. […] S-(−)-3-[3-(methylsulfonyl)phenyl]-1-propyl-piperidine (0.1 μg/mL, 25 μL) were quantitatively added to 100 μL of plasma sample. […] The linear range of the calibration curve calculated in plasma was 0.02 nmol/mL to 40 nmol/mL for S-(−)-3-[3-(methylsulfonyl) phenyl]-1-propyl-piperidine and 00.01 nmol/mL to 20 nmol/mL for its N-dealkylated metabolite. […] Product ions with m/z 173 were monitored following CID of the protonated stable isotope (m/z 286). […] Study sample concentrations were calculated by reference to this equation.

[3] = tested on: rotational behavior induced by apomorphine, L-DOPA and quinpirole; conditions: in vivo; cited from earlier work
[4] = tested on: unilaterally dopamine-lesioned monkeys; conditions: cited from earlier work
[5] = Post mortem brain (prefrontal cortex) levels of L-DOPA after 14 days of chronic treatment; conditions: L-DOPA alone vs L-DOPA combined with the piperidine derivative
Method: In order to perform the brain monoamine neurochemistry analysis, the brains were harvested following 14 days of chronic drug treatment. This was performed by decapitating the rats one hour after the evening drug administration, collecting the trunk blood into EDTA-treated tubes, immediately removing the brains, freezing the brains in small aluminum pans on dry ice and then storing at −80° C. Brain levels of L-DOPA and dopamine were analyzed by means of liquid chromatography and electrochemical detection according to standard methodology described in the literature.
After two weeks of the administering of the L-DOPA and benserazide, tissues were taken post-mortem from the unilateral striatum and prefrontal cortex and analyzed for monoamines and their metabolite levels.

| Structure (SMILES) | rotational behavior in animals with unilateral lesions of the nigro-striatal dopamine neurons ([1]; L-DOPA+benserazide 15+5 mg/kg i.p.) | behavioral sensitization, measured as enhanced number of contralateral rotations ([1]; L-DOPA+benserazide 15+5 mg/kg i.p. bid, two separate experiments) | effect of chronic treatment with L-DOPA on blood levels [2] | motor impairment such as akinesia or dystonia [3] | rotational behavior induced by apomorphine, L-DOPA and quinpirole [3] | L-DOPA-induced contraversive turning behavior [4] | behavioral sensitization induced by L-DOPA (enhanced number of contralateral rotations) ([1]; 10 or 30 mg/kg s.c. bid, 20 minutes before or together with L-DOPA+benserazide 15+5 mg/kg i.p., days 7 and 14 vs day 1) | antagonism of basal rotational response induced by L-DOPA ([1]; 10 or 30 mg/kg s.c. with L-DOPA+benserazide 15+5 mg/kg i.p., both experiments) | rotational behavior or akinesia induced by the compound by itself ([1]; compound alone, s.c.) | time course of antagonism of L-DOPA sensitization (simultaneous vs 20 minutes before L-DOPA) ([1]; given simultaneously with L-DOPA (FIG. 2) vs 20 minutes before (FIG. 1)) | effect of co-treatment on brain levels of L-DOPA [5] |
| --- | --- | --- | --- | --- | --- | --- | --- | --- | --- | --- | --- |
| N[C@@H](Cc1ccc(O)c(O)c1)C(=O)O [L-DOPA, reference compound] | induces rotational behavior | repeatedly exhibited | – | – | – | – | – | – | – | – | – |
| CS(=O)(=O)c1cccc([C@@H]2CCCNC2)c1 [N-dealkylated metabolite] | – | – | did not significantly effect | – | – | – | – | – | – | – | – |
| CCCN1CCC[C@@H](c2cccc(S(C)(=O)=O)c2)C1 [S-(−)-3-[3-(methylsulfonyl)phenyl]-1-propyl-piperidine] | – | – | did not significantly effect | without inducing motor impairment | attenuated | attenuating | blocked by both doses | in neither experiment did the piperidine derivative antagonize the basal rotational response | did not induce rotational behavior or akinesia by itself | most optimal antagonism occurred when the piperidine derivative was given simultaneously with L-DOPA | did not appear to effect the brain levels of L-DOPA |
